Test [1] concerns the target T1, 3-phosphoshikimate 1-carboxyvinyltransferase (Escherichia coli K-12, UniProt P0A6D3).
T1 sequence (P0A6D3 whole entry): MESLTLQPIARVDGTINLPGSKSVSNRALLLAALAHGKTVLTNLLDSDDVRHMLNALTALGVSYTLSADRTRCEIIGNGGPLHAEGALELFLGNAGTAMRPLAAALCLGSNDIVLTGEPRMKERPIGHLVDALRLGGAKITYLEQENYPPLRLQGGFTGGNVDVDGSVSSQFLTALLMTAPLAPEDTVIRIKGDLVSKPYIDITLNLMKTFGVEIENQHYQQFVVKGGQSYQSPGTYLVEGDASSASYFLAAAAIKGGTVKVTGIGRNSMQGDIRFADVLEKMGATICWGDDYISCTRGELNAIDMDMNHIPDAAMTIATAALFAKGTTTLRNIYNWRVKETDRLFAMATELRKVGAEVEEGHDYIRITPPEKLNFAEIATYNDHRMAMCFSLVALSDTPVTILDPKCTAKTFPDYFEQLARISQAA
Description: Dissociation constant against EPSP synthase.

The target of test [2] is T1, 3-phosphoshikimate 1-carboxyvinyltransferase. The experiment in a line: Potency against EPSP synthase.
Test [3] shares this target. Description: Inhibition of EPSP synthase PEP-Pi site by the compound was expressed as apparent value.
The target is the same in test [4]. Description: Dissociation constant of the at EPSP synthase was determined.
The target is the same in test [5]. The experiment in a line: Inhibition of the EPSP synthase PEP-Pi site by the compound expressed as apparent value.
Test [6] shares this target. The experiment in a line: Inhibition of the EPSP synthase by the compound expressed as weak apparent value.

For `C[C@@](O[C@@H]1CC(C(=O)O)=C[C@@H](OP(=O)(O)O)[C@H]1O)(C(=O)O)P(=O)(O)O`, the Kd (as a rule, a measure of binding affinity in units of concentration) in test [1] was found to be 0.015 µM. Moreover, the figures for the Ki in test [2] and in test [3] were 0.015 µM and 0.00011 µM, respectively.

For the molecule `N[C@@H]1CC(C(=O)O)=C[C@@H](OP(=O)(O)O)[C@H]1O`, in test [2], the Ki is 85 µM.

For the molecule `O=C(O)CN(CP(=O)(O)O)[C@@H]1CC(C(=O)O)=C[C@@H](OP(=O)(O)O)[C@H]1O`, the affinity in test [4], expressed as Kd, was 8 µM. The Ki turned out to be 13 µM in test [5] and 7.4 µM in test [6].

(Values after ChEMBL document CHEMBL1126366, “Design & synthesis of a novel EPSP synthase inhibitor based on its ternary complex with shikimate-3-phosphate and glyphosate” (Bioorg Med Chem Lett, 1992).)
